The source of these data is patent US20040014814A1, “Compositions and methods for delaying preventing rejuvenating or reversing senescence in cells” (priority 2000, published 2004).

The subject of this assay is p16^INK4/CDKN2. As to the kind of experiment: Immunohistochemical staining of p16 in MRC-5 cell nuclei. Format: cell-based, human. The settings on record: senescent cells, old media replaced with supplemented media, after a few days. On the procedure:
Senescent cells treated with acetyl-carnosine acquire a younger phenotype and no longer express p16 (C). Cells were stained from passage 30 until senescence was reached (approximately passage 65) in order to determine the effectiveness of p16 as a reliable biomarker.
Tissue culture cells were fixed by slowly infusing 4% paraformaldehyde in 0.1M sodium phosphate buffer pH 7.4 into the culture medium. This solution was then replaced with fixative alone and stored at −20° C. for 30 minutes. Cultures were then defrosted for 5 minutes at 37° C. and then washed with 3 changes of the 0.1M sodium phosphate buffer. […]
Three primary antibodies were used in this study: (i) murine monoclonal antibodies against cyclin-dependent kinase inhibitor p27^kipl (clone SX53G8, IgG, Loto38, DAKO, diluted 1:200); (ii) murine monoclonal antibodies against cyclin-dependent kinase inhibitor p21^WAP/CIPI (clone SX118, IgG, Loto88, DAKO, diluted 1:200); and (iii) murine monoclonal antibodies against cyclin-dependent kinase inhibitor p16^INK4/CDKN2 (clone DCS-50, IgG, Lot 077H4821, Sigma, diluted 1:200). […] An estimate of positively stained cells to specific antigens was determined. […]

For `CC(=O)NCCC(=O)N[C@@H](Cc1cnc[nH]1)C(=O)O` [N-acetyl carnosine], the “Expression of p16 in the nucleus” value is reported as “no expression of p16 in the nucleus”.
